In patent US5801162A, “Dermatan sulfate compositions and antithrombotic compositions containing same” (Seikagaku Kogyo Kabushiki Kaisha (Seikagaku Corporation), priority 1993, dated 1998):

Experiments:
[1] = tested on: activation of plasminogen with two-chain t-PA (tc-tPA); settings: s-2251
Method: (§1) Fifty microliters each of various concentration of DS (BIDS, CCDS) or chondroitin sulfate (control group), 25 μL of 1.6 μM plasminogen and 25 μL of 20 nM of single or two-chain t-PA, and 100 μL of 0.6 mM a synthetic substrate S-2251 (H-D-Val-L-Leu-L-Lys-p-nitroanilide·2HCl) were mixed and the absorbancy at 405 nm was determined every 2 minutes with an automatic microtiter plate reader. The reaction was carried out at 37° C. in a buffer composed of 60 mM TriS-HCl with Tween^RTM 80.
(§2) The initial rate of activation of plasminogen was calculated as follows; the slope of plots of, .LAMBDA.405, an absorbancy at 405 nm at time t to the square of time (Δ.LAMBDA.405 /Δt^2) was divided by 40,000 (Chibber, B. A. K., et al., Biochemistry, 1985, pp. 3429-3434). The stimulation rate was calculated from ratios to DS or chondroitin sulfate free conditions which was made the initial rate 1 (one).

[2] = tested on: activation of plasminogen with single-chain t-PA (sc-tPA); settings: s-2251
Method: as §1, §2

## chondroitin sulfate
[1]
  stimulation rate of activation of plasminogen (ratio to DS or chondroitin sulfate free conditions): ≤ 1.5 fold
[2]
  stimulation rate of activation of plasminogen (ratio to DS or chondroitin sulfate free conditions): ≤ 2.5 fold
